According to PubChem BioAssay AID2060908 (Molecular Pharmacology Branch, DTP, NCI, 2025):
pIC50: −log10 of the molar value.

Tested on: 186277-243-T-J2-PDC complex spheroids, viability
Assay: Anticancer human tumor 186277-243-T-J2-PDC patient-derived colon adenocarcinoma cell line growth inhibition [RAS]
Settings: for pIC50: curve of first compound; for viability, T/C: stronger effect = lower value
How it was run: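 Multi-cell-type spheroids: tumor cells plus HUVEC endothelial cells and mesenchymal stem cells. RAS-pathway inhibitors were combined with targeted agents, each dosed in half-log steps down from clinical Cmax, or from 10 microM when Cmax was unknown.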

[1] = second compound 0.000949 µM, first compound 0.00316 µM
[2] = second compound 0.000949 µM, first compound 0.01 µM
[3] = second compound 0.000949 µM, first compound 0.0316 µM
[4] = second compound 0.000949 µM, first compound 0.1 µM
[5] = second compound 0.000949 µM, first compound 0.316 µM
[6] = second compound 0.000949 µM, first compound 1 µM
[7] = second compound 0.003 µM, first compound 0.00316 µM
[8] = second compound 0.003 µM, first compound 0.01 µM
[9] = second compound 0.003 µM, first compound 0.0316 µM
[10] = second compound 0.003 µM, first compound 0.1 µM
[11] = second compound 0.003 µM, first compound 0.316 µM
[12] = second compound 0.003 µM, first compound 1 µM
[13] = second compound 0.00949 µM, first compound 0.00316 µM
[14] = second compound 0.00949 µM, first compound 0.01 µM
[15] = second compound 0.00949 µM, first compound 0.0316 µM
[16] = second compound 0.00949 µM, first compound 0.1 µM
[17] = second compound 0.00949 µM, first compound 0.316 µM
[18] = second compound 0.00949 µM, first compound 1 µM
[19] = second compound 0.03 µM, first compound 0.00316 µM
[20] = second compound 0.03 µM, first compound 0.01 µM
[21] = second compound 0.03 µM, first compound 0.0316 µM
[22] = second compound 0.03 µM, first compound 0.1 µM
[23] = second compound 0.03 µM, first compound 0.316 µM
[24] = second compound 0.03 µM, first compound 1 µM
[25] = second compound 0.0949 µM, first compound 0.00316 µM
[26] = second compound 0.0949 µM, first compound 0.01 µM
[27] = second compound 0.0949 µM, first compound 0.0316 µM
[28] = second compound 0.0949 µM, first compound 0.1 µM
[29] = second compound 0.0949 µM, first compound 0.316 µM
[30] = second compound 0.0949 µM, first compound 1 µM
[31] = second compound 0.3 µM, first compound 0.00316 µM
[32] = second compound 0.3 µM, first compound 0.01 µM
[33] = second compound 0.3 µM, first compound 0.0316 µM
[34] = second compound 0.3 µM, first compound 0.1 µM
[35] = second compound 0.3 µM, first compound 0.316 µM
[36] = second compound 0.3 µM, first compound 1 µM
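Further: spheroids exposed to compounds for 7 days before viability read.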

In the case of `C=CC(=O)Nc1cc(Nc2nccc(-c3cn(C)c4ccccc34)n2)c(OC)cc1N(C)CCN(C)C` + CCn1c(-c2cc(N3CCN(C)CC3)cnc2C(C)OC)c2c3cc(ccc31)-c1csc(n1)CC(NC(=O)C1CC1C)C(=O)N1CCCC(N1)C(=O)OCC(C)(C)C2, the pIC50 (second compound 0.000949 µM) was less than 6.00, the pIC50 (second compound 0.003 µM) was 6.46 and the pIC50 (second compound 0.00949 µM) was 7.96. For the same molecule, the pIC50 (second compound 0.03 µM) was greater than 8.50, the pIC50 (second compound 0.0949 µM) was greater than 8.50 and the pIC50 (second compound 0.3 µM) was greater than 8.50. The viability, T/C [1] was 103%, the viability, T/C [2] was 112% and the viability, T/C [3] was 107%. The viability, T/C [4] was 115%, the viability, T/C [5] was 85.2% and the viability, T/C [6] was 52.6%. The viability, T/C [7] was 106%, the viability, T/C [8] was 104% and the viability, T/C [9] was 91.8%. The viability, T/C [10] was 81.6%, the viability, T/C [11] was 52.3% and the viability, T/C [12] was 15.8%. The viability, T/C [13] was 58.3%, the viability, T/C [14] was 48.7% and the viability, T/C [15] was 40.6%. The viability, T/C [16] was 28.8%, the viability, T/C [17] was 10.8% and the viability, T/C [18] was 5.19%. It also gave a viability, T/C [19] of 18.4%, a viability, T/C [20] of 15.4% and a viability, T/C [21] of 12.1%. The viability, T/C [22] was 9.43%, the viability, T/C [23] was 5.63% and the viability, T/C [24] was 4.11%. It also gave a viability, T/C [25] of 7.42%, a viability, T/C [26] of 6.89% and a viability, T/C [27] of 5.88%. For the same molecule, the viability, T/C [28] was 4.8%, the viability, T/C [29] was 4.22% and the viability, T/C [30] was 2.72%. The viability, T/C [31] was 6%, the viability, T/C [32] was 6% and the viability, T/C [33] was 4.87%. It also gave a viability, T/C [34] of 4.47%, a viability, T/C [35] of 4.17% and a viability, T/C [36] of 2.68%.

With `CCN1CCN(Cc2ccc(Nc3ncc(F)c(-c4cc(F)c5nc(C)n(C(C)C)c5c4)n3)nc2)CC1` + C=CC(=O)N1CCN(c2nc(OCC3CCCN3C)nc3c(F)c(-c4nc(N)cc(C)c4C(F)(F)F)c(Cl)cc23)C(C)C1 the pIC50 (second compound 0.00316 µM) was less than 6.00, the pIC50 (second compound 0.01 µM) was less than 6.00 and the pIC50 (second compound 0.0316 µM) was less than 6.00. The pIC50 (second compound 0.1 µM) was less than 6.00, the pIC50 (second compound 0.316 µM) was less than 6.00 and the pIC50 (second compound 1 µM) was less than 6.00. It also gave a viability, T/C (second compound 0.00316 µM, first compound 0.00316 µM) of 136%, a viability, T/C (second compound 0.00316 µM, first compound 0.01 µM) of 129% and a viability, T/C (second compound 0.00316 µM, first compound 0.0316 µM) of 141%. It also gave a viability, T/C (second compound 0.00316 µM, first compound 0.1 µM) of 114%, a viability, T/C (second compound 0.00316 µM, first compound 0.316 µM) of 125% and a viability, T/C (second compound 0.00316 µM, first compound 1 µM) of 99.5%. The viability, T/C (second compound 0.01 µM, first compound 0.00316 µM) was 87.9%, the viability, T/C (second compound 0.01 µM, first compound 0.01 µM) was 108% and the viability, T/C (second compound 0.01 µM, first compound 0.0316 µM) was 127%. It also gave a viability, T/C (second compound 0.01 µM, first compound 0.1 µM) of 99.7%, a viability, T/C (second compound 0.01 µM, first compound 0.316 µM) of 121% and a viability, T/C (second compound 0.01 µM, first compound 1 µM) of 92.9%. The viability, T/C (second compound 0.0316 µM, first compound 0.00316 µM) was 94.6%, the viability, T/C (second compound 0.0316 µM, first compound 0.01 µM) was 107% and the viability, T/C (second compound 0.0316 µM, first compound 0.0316 µM) was 119%. For the same molecule, the viability, T/C (second compound 0.0316 µM, first compound 0.1 µM) was 154%, the viability, T/C (second compound 0.0316 µM, first compound 0.316 µM) was 114% and the viability, T/C (second compound 0.0316 µM, first compound 1 µM) was 101%. For the same molecule, the viability, T/C (second compound 0.1 µM, first compound 0.00316 µM) was 101%, the viability, T/C (second compound 0.1 µM, first compound 0.01 µM) was 112% and the viability, T/C (second compound 0.1 µM, first compound 0.0316 µM) was 142%. The viability, T/C (second compound 0.1 µM, first compound 0.1 µM) was 149%, the viability, T/C (second compound 0.1 µM, first compound 0.316 µM) was 138% and the viability, T/C (second compound 0.1 µM, first compound 1 µM) was 79.3%. The viability, T/C (second compound 0.316 µM, first compound 0.00316 µM) was 90.3%, the viability, T/C (second compound 0.316 µM, first compound 0.01 µM) was 106% and the viability, T/C (second compound 0.316 µM, first compound 0.0316 µM) was 117%. For the same molecule, the viability, T/C (second compound 0.316 µM, first compound 0.1 µM) was 115%, the viability, T/C (second compound 0.316 µM, first compound 0.316 µM) was 152% and the viability, T/C (second compound 0.316 µM, first compound 1 µM) was 97.8%. The viability, T/C (second compound 1 µM, first compound 0.00316 µM) was 117%, the viability, T/C (second compound 1 µM, first compound 0.01 µM) was 112% and the viability, T/C (second compound 1 µM, first compound 0.0316 µM) was 122%. For the same molecule, the viability, T/C (second compound 1 µM, first compound 0.1 µM) was 140%, the viability, T/C (second compound 1 µM, first compound 0.316 µM) was 135% and the viability, T/C (second compound 1 µM, first compound 1 µM) was 105%.

`O=C(c1ccc(F)c(F)c1Nc1ccc(I)cc1F)N1CC(O)([C@@H]2CCCCN2)C1` + CCn1c(-c2cccnc2C(C)OC)c2c3cc(ccc31)N1CCOC(CC(NC(=O)C(C(C)C)N(C)C(=O)C3(F)CCN(C(=O)C#CC(C)(C)N(C)C)CC3)C(=O)N3CCCC(N3)C(=O)OCC(C)(C)C2)C1 showed a pIC50 (second compound 0.000949 µM) of 7.02, a pIC50 (second compound 0.003 µM) of 7.04 and a pIC50 (second compound 0.00949 µM) of 7.06. For the same molecule, the pIC50 (second compound 0.03 µM) was 7.04, the pIC50 (second compound 0.0949 µM) was 7.13 and the pIC50 (second compound 0.3 µM) was 7.27. The viability, T/C [1] was 98.9%, the viability, T/C [2] was 102% and the viability, T/C [3] was 99.6%. The viability, T/C [4] was 48.2%, the viability, T/C [5] was 9.52% and the viability, T/C [6] was 4.41%. It also gave a viability, T/C [7] of 82.9%, a viability, T/C [8] of 94.6% and a viability, T/C [9] of 87.5%. The viability, T/C [10] was 46.5%, the viability, T/C [11] was 10.4% and the viability, T/C [12] was 3.64%. It also gave a viability, T/C [13] of 91.7%, a viability, T/C [14] of 105% and a viability, T/C [15] of 89.4%. For the same molecule, the viability, T/C [16] was 44.2%, the viability, T/C [17] was 9.08% and the viability, T/C [18] was 4.42%. For the same molecule, the viability, T/C [19] was 100%, the viability, T/C [20] was 93.9% and the viability, T/C [21] was 98.9%. The viability, T/C [22] was 45.7%, the viability, T/C [23] was 9.74% and the viability, T/C [24] was 4.04%. For the same molecule, the viability, T/C [25] was 121%, the viability, T/C [26] was 114% and the viability, T/C [27] was 86.9%. It also gave a viability, T/C [28] of 37.3%, a viability, T/C [29] of 9.15% and a viability, T/C [30] of 3.51%. For the same molecule, the viability, T/C [31] was 119%, the viability, T/C [32] was 101% and the viability, T/C [33] was 72.7%. It also gave a viability, T/C [34] of 25.3%, a viability, T/C [35] of 6.5% and a viability, T/C [36] of 2.7%.
